From US6083986A, “Potassium channel inhibitors” (ICAgen, Inc., priority 1997, dated 2000)

Legend:
[1] = target: T1, human Kv1.5 potassium channel (Homo sapiens, UniProt P22460); assay: Whole cell patch clamp, inhibition of Kv1.5 current in CHO cells; format: cell-based; settings: for IC50: Kv1.5, whole cell patch clamp, approx. values, read-out: 50% Channel Inhibition (IC50)
T1 construct: Error-free parts of these clones were then ligated together to form a complete cDNA construct; expressed in transfected cells
Protocol: (§1) 4. Electrophysiological Studies
(§2) Electrophysiological recordings of native channels in cells and cell lines, cloned and expressed channels in cells (e.g., CHO cells) as well as isolated cardiac myocytes were performed using the whole cell configuration of the patch clamp technique (Hamill et al., Pflugers Archiv 391:85, 1981). Cell lines were prepared as described above (cloning, etc.). Rat and human cardiac myocytes were isolated using the methods described in Castle and Slawsky, J. Pharmacol. Exp. Ther. 264:1450, 1993 and Wang et al., Circ. Res., 73:1061, 1993, respectively. Cells were plated on glass coverslips at a density of 2×10^4 cells/coverslip and used within 24-48 hours for cultured cell lines and within 6 hours for isolated cardiac myocytes. The coverslips were placed in a small chamber (volume ~200 μl) on the mechanical stage of an inverted microscope and perfused (2 ml/min) with extracellular recording solution. Drug application was achieved via a series of narrow-bore glass capillary tubes (inner diameter ~100 μm) positioned approximately 200 μm from the cell. Application of voltage-clamp pulses, data acquisition and the analysis were controlled by a 75 MHz Pentium computer using pCLAMP 6.0 software (Axon Instruments Inc. Foster City, Calif.).
500 ms voltage clamp steps from -80 mV to +60 mV were applied to individual cells every 20 seconds for Kv1.5 and every 60 seconds for Kv1.3.

[2] = target: T2, human Kv1.3 potassium channel (Homo sapiens, UniProt P22001); assay: 86Rubidium efflux from CHO cell monolayers expressing Kv1.3; format: cell-based; settings: for inhibition of 60 mM KCl evoked increase in 86Rb efflux rate (Kv1.3): preexposure to 5 nM margatoxin or 10 μM compound 4, 15 minute period, n=4
Protocol: Stable clones were tested for voltage-gated potassium channel expression using a ^86 rubidium (^86 Rb) ion flux assay (see below for methodology).
(§4) 2. ^86 Rubidium Efflux From Cell Monolayers
CHO cells stably transfected with either human Kv1.5 or Kv1.3 as well as nontransfected cells were grown to approximately 90% confluence in 24 well tissue culture plates. Tissue culture growth medium was then removed and replaced with 1 ml of Iscoves modified DMEM containing ^86 Rb at a concentration of 1 μCi/ml and incubated for three hours at 37° C. to permit intracellular uptake of the isotope. At the end of the incubation period, the ^86 Rb solution was aspirated and the cells washed three times with Earls Balanced Salt Solution (EBSS). The cells were then incubated for 15 minutes at room temperature in 0.6 ml/well of EBSS or EBSS containing the compounds to be tested. At the end of this period, a 0.3 ml sample was taken for analysis to determine basal efflux of ^86 Rb. To each well was then added 0.3 ml of a modified high KCl EBSS, containing 125 mM KCl (NaCl replaced by KCl; final KCl concentration in each well was 65 nM) and the compounds to be tested. The high KCl concentration was utilized to depolarize the cells to membrane potentials that would activate Kv1.3 and Kv1.5 channels. After a 15 minute incubation, another 0.3 ml sample was taken for analysis. Finally 0.3 ml of 0.2% sodium dodecyl sulfate in EBSS was added to each well to lyse the cells. Of this lysate 0.3 ml was taken for analysis to determine final cell content of ^86 Rb. Samples were counted in a Wallac Microbeta Liquid Scintillation counter by Cerenkov emission. Efflux was expressed as a percentage of the initial cell content of ^86 Rb.
(§5) Values are means ±s.e. (n=4) of the amount of ^86 Rb released in a 15 minute period and are expressed as a percentage of the initial cell content.

[3] = system: human T lymphocytes; assay: T-lymphocyte proliferation assay (PHA-stimulated 3H-thymidine incorporation); format: cell-based; settings: compared to PHA-only controls; 10 μM compound 4, 1 nM margatoxin, 50 nM charybdotoxin; PHA 1.25 or 2.5 μg/ml
Protocol: Lymphocyte Proliferation Studies
(§6) A T-lymphocyte proliferation assay was performed using human peripheral T-lymphocytes isolated by centrifugation on lymphocyte separation medium (Organon Teknika) followed by adherence of non-T cells on nylon wool. […] 100 μl of cells/well was dispensed into a 96-well plate. Cells were stimulated with phytohemoagglutinin (1.25 or 2.5 μg/ml final concentration) in the presence or absence of various antagonists for 3 days. On the fourth day, cells were pulsed with [^3 ]thymidine for an additional 18 hours and harvested on glass fiber filtermats with extensive washing. Mats were counted in a Wallac Microbeta liquid scintillation counter using melt-on scintillant. Additional wells were counted at the end of the 18 hour period to determine if the drug treatments caused cellular toxicity.

[4] = system: human T-lymphocytes; assay: Toxicity to human T-lymphocytes (cell viability); format: cell-based; settings: 10 μM, 90 hours of exposure
Protocol: as §6

[5] = system: rat cardiac myocytes; assay: Action potential prolongation in rat cardiac myocytes; format: cell-based; settings: 1 μM, 2 min application
Protocol: as §1, §2
(§3) A functional consequence of potassium channel inhibition in the heart is a prolongation of the action potential duration. […]

[6] = target: T2, human Kv1.3 potassium channel; assay: Fluorescence measurement of cell membrane potential (DiBac4(3)) in CHO cells expressing Kv1.3; format: cell-based; settings: 10 μM; compared with margatoxin; CHO cells expressing human Kv1.3
Protocol: Fluorescence Measurement of Cell Membrane Potential
CHO cells stably transfected with genes encoding human voltage gated potassium channels were grown to 80-90% confluency in 96 well tissue culture plates. On the experimental day, they were repeatedly contacted with a modified EBSS (116 mM NaCl, 5.4 mM KCl, 1.8 mM CaCl2, 0.8 mM MgCl2, 20 mM HEPES, 5 nM glucose; pH 7.4, 300 mOsm) plus 5 μM of the voltage-sensitive oxonol dye, bis-(1,3-dibutylbarbituric acid)trimethine oxonol (DiBac4 (3)). Dibac4 (3) binds to intracellular proteins in a membrane potential-dependent process, changing the effective concentration of fluorescing molecules. […] The cells in each well were then incubated in EBSS+5 μM DiBac4 (3) at 37° C. for 30 minutes. The 96 well plate was then placed in a 35° C. temperature controlled chamber within a laser based fluorescence imaging plate reader (NovelTech Inc.). Data were collected every 60 seconds for periods ranging from 20 to 40 min. To permit comparative quantification of the magnitude of drug induced changes in the fluorescence signal, changes were compared to the addition of EBSS+5 μM DiBac4 (3) without drug and EBSS+5 μM DiBac4 (3)+30 mM KCl without drug, and expressed as a percentage of the increase in fluorescence induced by exposure of the cells to 30 mM KCl. […]

[7] = target: T1, human Kv1.5 potassium channel; assay: 86Rubidium efflux from CHO cell monolayers expressing Kv1.5; format: cell-based; settings: 10 μM compound 4; 15 minute period; n=4
Protocol: as §4
CHO cells stably transfected with either human Kv1.5 or Kv1.3 as well as nontransfected cells were grown to approximately 90% confluence in 24 well tissue culture plates. Tissue culture growth medium was then removed and replaced with 1 ml of Iscoves modified DMEM containing ^86 Rb at a concentration of 1 μCi/ml and incubated for three hours at 37° C. to permit intracellular uptake of the isotope. At the end of the incubation period, the ^86 Rb solution was aspirated and the cells washed three times with Earls Balanced Salt Solution (EBSS). The cells were then incubated for 15 minutes at room temperature in 0.6 ml/well of EBSS or EBSS containing the compounds to be tested. At the end of this period, a 0.3 ml sample was taken for analysis to determine basal efflux of ^86 Rb. To each well was then added 0.3 ml of a modified high KCl EBSS, containing 125 mM KCl (NaCl replaced by KCl; final KCl concentration in each well was 65 nM) and the compounds to be tested. […] Samples were counted in a Wallac Microbeta Liquid Scintillation counter by Cerenkov emission. Efflux was expressed as a percentage of the initial cell content of ^86 Rb.
as §5

[8] = system: IKur in human atrial myocytes; assay: Inhibition of IKur currents in isolated human atrial myocytes; format: cell-based
Protocol: as §1, §2

[9] = system: human atrial myocytes; assay: Action potential prolongation in isolated human atrial myocytes; format: cell-based
Protocol: as §1, §2, §3

[10] = target: T2, human Kv1.3 potassium channel; assay: Whole cell patch clamp, inhibition of Kv1.3 current in CHO cells; format: cell-based; settings: 10 μM, 5 min preincubation; steps -80 mV to +60 mV every 60 seconds
Protocol: as §1
as §2, with “Calif.). […]” for “Calif.).”

[11] = system: nontransfected CHO cells; assay: Fluorescence measurement of cell membrane potential (DiBac4(3)) in non-transfected CHO cells; format: cell-based, Chinese hamster; settings: 10 μM; CHO-WT

T2 sequence (P22001 whole entry): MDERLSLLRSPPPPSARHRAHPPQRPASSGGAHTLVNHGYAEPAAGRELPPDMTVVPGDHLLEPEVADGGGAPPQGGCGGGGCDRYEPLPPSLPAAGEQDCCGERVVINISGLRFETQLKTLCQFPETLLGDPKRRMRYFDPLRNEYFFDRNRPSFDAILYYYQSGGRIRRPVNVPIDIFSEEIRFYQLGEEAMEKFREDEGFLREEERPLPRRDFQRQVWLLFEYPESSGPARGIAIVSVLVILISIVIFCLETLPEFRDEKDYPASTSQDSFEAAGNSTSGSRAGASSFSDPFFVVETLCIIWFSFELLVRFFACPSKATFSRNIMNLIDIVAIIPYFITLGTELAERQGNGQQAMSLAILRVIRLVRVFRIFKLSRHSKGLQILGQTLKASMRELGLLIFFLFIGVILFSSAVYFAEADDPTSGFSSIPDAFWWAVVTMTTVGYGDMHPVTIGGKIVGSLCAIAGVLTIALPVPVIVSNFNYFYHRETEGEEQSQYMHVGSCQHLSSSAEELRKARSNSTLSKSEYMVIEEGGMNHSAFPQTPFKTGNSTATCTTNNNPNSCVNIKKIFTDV
T1 sequence (P22460 whole entry): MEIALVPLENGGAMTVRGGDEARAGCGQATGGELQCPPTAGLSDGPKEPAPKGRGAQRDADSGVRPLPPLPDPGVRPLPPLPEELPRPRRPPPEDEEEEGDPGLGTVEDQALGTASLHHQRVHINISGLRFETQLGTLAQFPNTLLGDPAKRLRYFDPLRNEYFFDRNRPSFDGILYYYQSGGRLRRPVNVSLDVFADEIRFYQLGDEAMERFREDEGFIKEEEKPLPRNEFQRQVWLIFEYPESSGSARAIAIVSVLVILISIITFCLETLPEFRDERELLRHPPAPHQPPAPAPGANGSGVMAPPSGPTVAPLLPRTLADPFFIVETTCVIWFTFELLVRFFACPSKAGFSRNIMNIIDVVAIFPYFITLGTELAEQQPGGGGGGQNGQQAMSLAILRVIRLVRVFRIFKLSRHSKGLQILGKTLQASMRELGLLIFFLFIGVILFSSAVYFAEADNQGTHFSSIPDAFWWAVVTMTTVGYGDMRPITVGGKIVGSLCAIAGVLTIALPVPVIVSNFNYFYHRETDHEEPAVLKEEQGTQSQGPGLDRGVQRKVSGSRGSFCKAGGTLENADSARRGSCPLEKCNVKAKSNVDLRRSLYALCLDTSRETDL

## CCCCCOc1ccc(C(=O)Nc2ccc3c(c2)C(NS(=O)(=O)c2ccc(CC)cc2)C(O)C3)cc1 (stereo not drawn) [Compound 15]
[1]
  IC50: ~1000 nM

## CCc1ccc(S(=O)(=O)NC2c3cc(NC(=O)c4ccccc4F)ccc3CC2O)cc1 (stereo not drawn) [Compound 17]
[1]
  IC50: > 1000 nM

## CCc1ccc(S(=O)(=O)NC2c3cc(NC(=O)c4cccc(C)c4)ccc3CC2O)cc1 (stereo not drawn) [Compound 2]
[1]
  IC50: ~1000 nM

## COc1cccc(C(=O)Nc2ccc3c(c2)C(NS(=O)(=O)c2ccccc2)C(O)C3)c1 (stereo not drawn) [Compound 12]
[1]
  IC50: > 1000 nM

## margatoxin (TIINVKCTSPKQCLPPCKAQFGQSAGAKCMNGKCKCYPH; UniProt P40755 1-39, looked up)
[2]; margatoxin present, four positive Kv1.3 clones
  inhibition of KCl-stimulated 86Rb efflux: approximately 95%
[2]
  inhibition of 60 mM KCl evoked increase in 86Rb efflux rate (Kv1.3): completely abolished
[3]
  inhibition of lymphocyte proliferation: inhibited lymphocyte proliferation to a similar extent

## charybdotoxin
[3]
  inhibition of lymphocyte proliferation: inhibited lymphocyte proliferation to a similar extent

## COc1cccc(C(=O)Nc2ccc3c(c2)C(NS(=O)(=O)c2ccc4ccccc4c2)C(O)C3)c1 (stereo not drawn) [Compound 16]
[1]
  IC50: ~1000 nM

## CCc1ccc(S(=O)(=O)NC2c3cc(NC(=O)C4CC5CCC4CC5)ccc3CC2O)cc1 (stereo not drawn) [Compound 13]
[1]
  IC50: ~1000 nM

## CCc1ccc(S(=O)(=O)N[C@H]2c3cc(NC(=O)c4cccc(OC)c4)ccc3C[C@@H]2O)cc1 (relative stereo) [Compound 4, 1-(p-ethylphenyl)sulfimide-2-hydroxy-6-(m-methoxy)benzamido-indane]
[2]
  inhibition of 60 mM KCl evoked increase in 86Rb efflux rate (Kv1.3): completely abolished
[4]
  cell viability / toxicity to human T-lymphocytes: no decrease in cell viability
[5]
  prolongation of the action potential (rat): prolongs the action potential
[6]
  cell membrane depolarization (Kv1.3): produced a depolarization similar in magnitude to that induced by the Kv1.3-specific blocking toxin margatoxin
[3]
  inhibition of lymphocyte proliferation: inhibited lymphocyte proliferation to a similar extent
[7]
  inhibition of KCl evoked increase in 86Rb efflux rate (Kv1.5): completely inhibited
[1]; 10 μM, 5 min preincubation, steps -80 mV to +60 mV every 20 seconds
  inhibition of potassium currents (Kv1.5): inhibition of potassium currents
[1]
  IC50: ~100 nM
[8]
  inhibition at 1 µM: > 50%
[9]
  activation at 1 µM: > 50%
[10]
  inhibition of potassium currents (Kv1.3): inhibition of potassium currents
[11]
  compound-induced depolarization (nontransfected cells): absent

## COc1ccc(S(=O)(=O)NC2c3cc(NC(=O)c4cccc(OC)c4)ccc3CC2O)cc1 (stereo not drawn) [Compound 10]
[1]
  IC50: > 1000 nM

## CCc1ccc(S(=O)(=O)NC2c3cc(NC(=O)CCC4CCCC4)ccc3CC2O)cc1 (stereo not drawn) [Compound 11]
[1]
  IC50: ~1000 nM
